pEC50: −log10 of the molar value.
system: HEK293T cells carrying the ATF4 luciferase reporter; assay: ATF4-Luc assay (in vitro model of vanishing white matter disease); type: cell-based; conditions: Homo sapiens, HEK-293T, 1 μg/mL tunicamycin, 7 hours
Method: In order to test exemplary compounds of the invention in a cellular context, a stable VWMD cell line was first constructed. The ATF4 reporter was prepared by fusing the human full-length ATF4 5′-UTR (NCBI Accession No. BCO22088.2) in front of the firefly luciferase (FLuc) coding sequence lacking the initiator methionine as described in Sidrauski et al (eLife 2013). The construct was used to produce recombinant retroviruses using standard methods and the resulting viral supernatant was used to transduce HEK293T cells, which were then subsequently selected with puromycin to generate a stable cell line.
HEK293T cells carrying the ATF4 luciferase reporter were plated on polylysine coated 384-well plates (Greiner Bio-one) at 30,000 cells per well. Cells were treated the next day with 1 μg/mL tunicamycin and 200 nM of a compound of Formula (I) for 7 hours. Luminescence was measured using One Glo (Promega) as specified by the manufacturer. Cells were maintained in DMEM with L-glutamine supplemented with 10% heat-inactivated FBS (Gibco) and Antibiotic-Antimycotic solution (Gibco).
Table 2 below summarizes the EC50 data obtained using the ATF4-Luc assay for exemplary compounds of the invention.

Structure (SMILES)	pEC50
O=C(COc1ccc(Cl)c(F)c1)NC12CCC(C(=O)NCc3nc4ccc(Cl)cc4[nH]3)(CC1)CC2 [Compound 325, N-[(6-chloro-1H-benzimidazol-2-yl)methyl]-4-[2-(4-chloro-3-fluorophenoxy)acetamido]bicyclo[2.2.2]octane-1-carboxamide]	> 6.60
O=C(COc1ccc(Cl)c(F)c1)NC12CC(C(=O)Nc3cccnc3)(C1)C2 [Compound 300, 3-[2-(4-chloro-3-fluorophenoxy)acetamido]-N-(pyridin-3-yl)bicyclo[1.1.1]pentane-1-carboxamide]	> 6.60
O=C(COc1ccc(Cl)c(Cl)c1)NC12CCC(C(=O)NCc3ccc(C(F)(F)F)cc3)(CC1)C(O)C2 (stereo not drawn) [Compound 255, 4-[2-(3,4-dichlorophenoxy)acetamido]-2-hydroxy-N-{[4-(trifluoromethyl)phenyl]methyl}bicyclo[2.2.2]octane-1-carboxamide]	> 6.60
O=C(COc1ccc(Cl)c(F)c1)NC12CCC(C(=O)NCc3ccc(OC(F)F)nc3)(CC1)CC2 [Compound 262, 4-[2-(4-chloro-3-fluorophenoxy)acetamido]-N-{[6-(difluoromethoxy)pyridin-3-yl]methyl}bicyclo[2.2.2]octane-1-carboxamide]	> 6.60
O=C(COc1ccc(Cl)c(F)c1)NC12CCC(C(=O)NCc3ccc(C(F)(F)F)cn3)(CC1)OC2 [Compound 335, 4-[2-(4-chloro-3-fluorophenoxy)acetamido]-N-{[5-(trifluoromethyl)pyridin-2-yl]methyl}-2-oxabicyclo[2.2.2]octane-1-carboxamide]	> 6.60
O=C(COc1ccc(Cl)c(F)c1)NC12CCC(C(=O)Nc3ccc(OC(F)(F)F)nc3)(CC1)OC2 [Compound 341, 4-[2-(4-chloro-3-fluorophenoxy)acetamido]-N-[6-(trifluoromethoxy)pyridin-3-yl]-2-oxabicyclo[2.2.2]octane-1-carboxamide]	> 6.60
O=C(COc1ccc(Cl)c(F)c1)NC12CC(C(=O)Nc3cc(CO)ccn3)(C1)C2 [Compound 313, 3-[2-(4-chloro-3-fluorophenoxy)acetamido]-N-[4-(hydroxymethyl)pyridin-2-yl]bicyclo[1.1.1]pentane-1-carboxamide]	5.70 to 6.00
O=C(COc1ccc(Cl)c(F)c1)NC12CCC(C(=O)NCC(=O)c3ccc(Cl)cc3)(CC1)[C@@H](O)C2 [Compound 273, (2S)-4-[2-(4-chloro-3-fluorophenoxy)acetamido]-N-[2-(4-chlorophenyl)-2-oxoethyl]-2-hydroxybicyclo[2.2.2]octane-1-carboxamide]	> 6.60
O=C(COc1ccc(Cl)c(F)c1)NC12CCC(C(=O)Nc3ccc(C(F)(F)F)cc3)(CC1)OC2 [Compound 337, 4-[2-(4-chloro-3-fluorophenoxy)acetamido]-N-[4-(trifluoromethyl)phenyl]-2-oxabicyclo[2.2.2]octane-1-carboxamide]	> 6.60
O=C(COc1ccc(Cl)c(F)c1)NC12CCC(C(=O)NCc3ccc(C(F)(F)F)cn3)(CC1)CC2 [Compound 261, 4-[2-(4-chloro-3-fluorophenoxy)acetamido]-N-{[5-(trifluoromethyl)pyridin-2-yl]methyl}bicyclo[2.2.2]octane-1-carboxamide]	> 6.60
O=C(COc1ccc(Cl)c(F)c1)NC12CCC(C(=O)NCC(=O)c3ccc(Cl)c(F)c3)(CC1)[C@@H](O)C2 [Compound 326, (2S)-4-[2-(4-chloro-3-fluorophenoxy)acetamido]-N-[2-(4-chloro-3-fluorophenyl)-2-oxoethyl]-2-hydroxybicyclo[2.2.2]octane-1-carboxamide]	> 6.60
O=C(COc1ccc(Cl)c(F)c1)NC12CCC(C(=O)NCc3ccc(Cl)cn3)(CC1)CC2 [Compound 257, 4-[2-(4-chloro-3-fluorophenoxy)acetamido]-N-[(5-chloropyridin-2-yl)methyl]bicyclo[2.2.2]octane-1-carboxamide]	> 6.60
